# Experimental data reported in publication PMC12369479 (Journal of Experimental Botany, 2025).
# Experiments:
# [1] = biological target: WT ZmADK3 (Zea mays, UniProt A0A1D6E5Z5); experiment: Binding affinity by MST; conditions: read-out: KD ATP
# [2] = tested on: five plant ADKs; experiment: Thermal stability by nanoDSF; design: species or system Zea mays, Physcomitrella patens; conditions: all isoforms, ATP complexes at 4 mM
# Method: (§1) The microscale thermophoresis (MST) method was used to determine the binding affinity of various ribosides for ZmADK2 and PpADK1. Proteins were fluorescently labeled with RED-tris-NTA dye (www.nanotemper-technologies.com) using a 1:1 dye/protein molar ratio. The labeled protein was adjusted to 100–300 nM in 50 mM HEPES buffer pH 7.5, 1 mM MgCl2, and 0.2% Tween. Measurements were performed in premium capillaries on a Monolith NT.115 instrument at 30 °C with 5 s/30 s/5 s laser off/on/off times, respectively, with continuous sample fluorescence recording. Thermal stability was measured by nano-differential scanning fluorimetry on a Prometheus NT.48 instrument (www.nanotemper-technologies.com) in various buffers covering a pH (7.0–9.5) and temperature range (25–95 °C), with a heating rate of 1 °C min^–1, and using NT melting control software. Protein unfolding was measured by detecting the temperature-induced change in tryptophan fluorescence intensity at emission wavelengths of 330±5 nm and 350±5 nm. The melting temperature (Tm) was deduced from the maximum of the first derivative of the fluorescence ratios F350/F330.
# Supplementary Fig. S1. Thermal stability, molecular and kinetic properties of ZmADK2. (A)
# Thermal stability of five plant ADKs measured by nanoDSF. The curves for apoforms (in 150 mM
# HEPES pH 7.2, 100 mM NaCl, 10 mM MgCl2) and ATP complexes at 4 mM concentrations are shown. […]
# [3] = biological target: ZmADK2 (Zea mays, UniProt B4FFH8, T4S); experiment: Binding affinity by microscale thermophoresis (MST); conditions: MST, 50 mM HEPES pH 7.5, 1 mM MgCl2, first or only binding event, read-out: KD
# ZmADK2, sequence (B4FFH8 1-342 T4S): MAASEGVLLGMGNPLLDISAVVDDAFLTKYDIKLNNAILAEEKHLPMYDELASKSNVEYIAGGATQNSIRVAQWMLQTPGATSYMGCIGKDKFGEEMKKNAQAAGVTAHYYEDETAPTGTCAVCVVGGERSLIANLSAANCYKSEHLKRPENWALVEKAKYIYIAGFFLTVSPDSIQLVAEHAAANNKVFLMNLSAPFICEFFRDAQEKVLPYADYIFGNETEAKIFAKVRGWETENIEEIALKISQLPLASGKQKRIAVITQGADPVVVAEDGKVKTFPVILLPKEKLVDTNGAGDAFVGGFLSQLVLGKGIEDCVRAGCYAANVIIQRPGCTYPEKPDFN
# Method: as §1
# [4] = biological target: ZmADK3 N295A variant (Zea mays, UniProt A0A1D6E5Z5, N295A); experiment: Binding affinity by MST; conditions: N295A; MST; read-out: KD ATP
# ZmADK3 N295A variant, sequence (A0A1D6E5Z5 entry or part of it N295A): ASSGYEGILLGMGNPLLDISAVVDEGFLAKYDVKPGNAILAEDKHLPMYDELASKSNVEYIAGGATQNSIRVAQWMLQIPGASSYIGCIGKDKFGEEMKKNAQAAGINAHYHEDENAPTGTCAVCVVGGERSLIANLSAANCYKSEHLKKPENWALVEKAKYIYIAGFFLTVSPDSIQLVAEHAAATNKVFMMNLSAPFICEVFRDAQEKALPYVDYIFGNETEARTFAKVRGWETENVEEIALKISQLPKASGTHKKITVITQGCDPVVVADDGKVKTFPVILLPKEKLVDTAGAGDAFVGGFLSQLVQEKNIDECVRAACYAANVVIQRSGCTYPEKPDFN
# Method: (§2) All ZmADK3 mutants were cloned by 30 cycle PCRs using tail-to-tail oriented phosphorylated primers, with the mutation being located at the 5′ end of one of the primers. The following mutants were cloned using the primers given in Supplementary Table S1: D19A, R132A, N222A, E225A, N295A, and D299A. The products were treated with DpnI restriction enzyme, gel purified, and ligated using T4 DNA ligase (www.thermofisher.com). Clones were transformed into T7 express I^qE. coli competent cells.
# as §1
# [5] = biological target: ZmADK3 R132A variant (Zea mays, UniProt A0A1D6E5Z5, R132A); experiment: Binding affinity by MST; conditions: R132A; MST; read-out: KD ATP
# ZmADK3 R132A variant, sequence (A0A1D6E5Z5 entry or part of it R132A): as the sequence (A0A1D6E5Z5 entry or part of it N295A) above, with R131A, A294N counted along it
# Method: as §2, §1
# [6] = biological target: ZmADK3 E225A variant (Zea mays, UniProt A0A1D6E5Z5, E225A); experiment: Binding affinity by MST
# ZmADK3 E225A variant, sequence (A0A1D6E5Z5 entry or part of it E225A): as the sequence (A0A1D6E5Z5 entry or part of it N295A) above, with E224A, A294N counted along it
# Method: as §2, §1
# [7] = biological target: ZmADK3 N222A variant (Zea mays, UniProt A0A1D6E5Z5, N222A); experiment: Binding affinity by MST
# ZmADK3 N222A variant, sequence (A0A1D6E5Z5 entry or part of it N222A): as the sequence (A0A1D6E5Z5 entry or part of it N295A) above, with N221A, A294N counted along it
# Method: as §2, §1
# [8] = biological target: ZmADK3 D299A variant (Zea mays, UniProt A0A1D6E5Z5, D299A); experiment: Binding affinity by MST; conditions: D299A; MST; read-out: KD ATP
# ZmADK3 D299A variant, sequence (A0A1D6E5Z5 entry or part of it D299A): as the sequence (A0A1D6E5Z5 entry or part of it N295A) above, with A294N, D298A counted along it
# Method: as §2, §1
# [9] = biological target: ZmADK3 D19A variant (Zea mays, UniProt A0A1D6E5Z5, D19A); experiment: Binding affinity by MST; conditions: D19A; MST; read-out: KD ATP
# ZmADK3 D19A variant, sequence (A0A1D6E5Z5 entry or part of it D19A): as the sequence (A0A1D6E5Z5 entry or part of it N295A) above, with D18A, A294N counted along it
# Method: as §2, §1
# [10] = biological target: T1, PpADK1 (Physcomitrium patens, UniProt O49923); experiment: Binding affinity by microscale thermophoresis (MST); design: species or system Physcomitrella patens; conditions: 50 mM HEPES pH 7.5, 1 mM MgCl2, read-out: KD
# T1 construct: made in house; host or cells: E. coli T7 Express Iq
# T1 sequence (O49923 whole entry): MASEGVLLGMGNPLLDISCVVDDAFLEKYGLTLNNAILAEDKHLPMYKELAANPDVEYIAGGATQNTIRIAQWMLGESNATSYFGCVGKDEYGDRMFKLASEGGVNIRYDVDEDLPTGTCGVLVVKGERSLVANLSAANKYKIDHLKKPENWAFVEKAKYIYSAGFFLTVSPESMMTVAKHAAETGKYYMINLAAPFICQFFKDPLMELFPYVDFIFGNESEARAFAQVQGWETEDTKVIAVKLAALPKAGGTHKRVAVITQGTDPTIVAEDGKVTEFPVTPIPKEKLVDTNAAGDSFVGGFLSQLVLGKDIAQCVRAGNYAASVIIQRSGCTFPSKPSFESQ
# Method: as §1
# [11] = tested on: plant ADKs from lupin and Arabidopsis; design: method as in Guranowski, 1979; Moffatt et al., 2000; conditions: ref Guranowski, 1979, Moffatt et al., 2000, read-out: Km for ATP; cited from earlier work
# WT ZmADK3, sequence (A0A1D6E5Z5 2-344): as the sequence (A0A1D6E5Z5 entry or part of it N295A) above, with A294N counted along it
smiles,measurement,setting,value
Nc1ncnc2c1ncn2[C@@H]1O[C@H](COP(=O)(O)OP(=O)(O)OP(=O)(O)O)[C@@H](O)[C@H]1O [ATP],Kd,[1],2.9 ± 1.1 mM
same,stabilizing effect on melting temperature (Tm),[2],up to 4 °C
same,Kd,[3],2.2 ± 0.62 mM
same,Kd,[4],41.8 ± 10 mM
same,Kd,[5],8.5 ± 2.1 mM
same,lower affinity for ATP compared with the WT,[6]; E225A variant of ZmADK3,~ 6 fold
same,Kd,"[6]; E225A, MST, read-out: KD ATP",16 ± 4.5 mM
same,lower affinity for ATP compared with the WT,[7]; N222A variant of ZmADK3,7 fold
same,Kd,"[7]; N222A, MST, read-out: KD ATP",20.7 ± 4.4 mM
same,Kd,[8],9.1 ± 2.1 mM
same,Kd,[9],4.9 ± 1.5 mM
same,Kd,[10],2.9 ± 0.7 mM
same,Km,[11],300 to 400 µM
